Data taken from patent publication US6150332A, “Method and composition for lowering low density lipoprotein cholesterol” (Virginia Commonwealth University, priority 1998, dated 2000).

Tests used:
rat hepatocytes = assay: Iodine labeled LDL binding in rat hepatocytes in culture; assay type: cell-based; conditions: 2 μM or 5 μM tested, added 24-48 hr after incubation began, FIG. 1b
Method: (§1) With reference to FIGS. 1a-b, an experiment was conducted wherein iodine labeled LDL was incubated with HepG2 or rat hepatocytes in culture with and without cleaved α1 -antitrypsin or hypocholesterolemic peptides. The cleaved α1 -antitrypsin and hypocholesterolemic peptides were added 24-48 hr after incubation began in 2 micromolar (μM) or 5 μM concentrations. The bound LDL was quantitated by counting. The control indicates the amount of bound LDL obtained when no cleaved α1 -antitrypsin or hypocholesterolemic peptides are present. FIGS. 1a-b show maximum LDL binding occurs when 2 μM α1 -antitrypsin or its peptide derivatives are added.

human HepG2 cells = assay: Iodine labeled LDL binding in HepG2 cells in culture; assay type: cell-based; conditions: 2 μM or 5 μM tested, added 24-48 hr after incubation began, FIG. 1a
Method: as §1
An acetyl derivative of SEQ ID No. 16 was tested experimentally in human Hep G2 cells for LDL binding in the same manner as described above in connection with FIGS. 1a-b. […] ID No. 16. The sub-fragment was added 24-48 hours after incubation began in concentrations ranging from 0.13-1.4 μM.

- concentration at which maximum LDL binding occurs (rat hepatocytes): 2 µM
Substance: α1 -antitrypsin
- concentration at which maximum LDL binding occurs (human HepG2 cells): 2 µM
